Data set [1] in a line: Intrinsic clearance in mouse liver microsomes at 0.2 uM. The class given is ADME, Microsome.
Data set [2] can be described thus: Intrinsic clearance in human liver microsomes at 0.2 uM. It is filed as ADME, Microsome.
A short description of data set [3]: Aqueous solubility of the compound at pH 6.8. It is filed as physicochemical. As to conditions: aqueous medium.
Data set [4] in a line: AUC (0 to 24 hrs) in Sprague-Dawley rat at 0.3 mg/kg, iv. As to conditions: plasma. It is filed as ADME, organism-based. On the set-up: time < 24 hr, dose 0.3 mg/kg, route intravenous.
The nature of data set [5]: Cmax in Sprague-Dawley rat at 1 mg/kg, po. The class given is ADME, organism-based. Also on record: dose 1 mg/kg, route oral. Particulars: in vivo.
A short description of data set [6]: Half life in Sprague-Dawley rat at 0.3 mg/kg, iv. The class given is ADME, organism-based. On the set-up: dose 0.3 mg/kg, route intravenous. As to conditions: in vivo.
The nature of data set [7]: AUC (0 to 24 hrs) in Sprague-Dawley rat at 1 mg/kg, po. It is filed as ADME, organism-based. On the set-up: time < 24 hr, dose 1 mg/kg, route oral. Particulars: plasma.
Data set [8] in a line: Oral availability in Sprague-Dawley rat at 1 mg/kg. The class given is ADME, organism-based. Also on record: dose 1 mg/kg. As to conditions: in vivo.
A short description of data set [9]: Volume of distribution at steady state in Sprague-Dawley rat at 0.3 mg/kg, iv. The class given is ADME, organism-based. Particulars: in vivo, read-out: Vdss. Also on record: dose 0.3 mg/kg, route intravenous.
Data set [10] in a line: Total clearance in Sprague-Dawley rat at 0.3 mg/kg, iv. It is filed as ADME, organism-based. Also on record: dose 0.3 mg/kg, route intravenous. As to conditions: in vivo.
Data set [11] in a line: Tmax in Sprague-Dawley rat at 1 mg/kg, po. It is filed as ADME, organism-based. Also on record: dose 1 mg/kg, route oral. Particulars: in vivo.
Data set [12] can be described thus: Cmax in Sprague-Dawley rat at 3 mg/kg, po. Also on record: dose 3 mg/kg, route oral. It is filed as ADME, organism-based. As to conditions: in vivo.
Data set [13] can be described thus: Oral availability in Sprague-Dawley rat at 3 mg/kg. Particulars: in vivo. It is filed as ADME, organism-based. Also on record: dose 3 mg/kg.
The nature of data set [14]: Tmax in Sprague-Dawley rat at 3 mg/kg, po. It is filed as ADME, organism-based. On the set-up: dose 3 mg/kg, route oral. Particulars: in vivo.
Data set [15] in a line: AUC (0 to 24 hrs) in Sprague-Dawley rat at 3 mg/kg, po. Particulars: plasma. On the set-up: time < 24 hr, dose 3 mg/kg, route oral. It is filed as ADME, organism-based.

SMILES strings stand for the structures. In brackets after ≈: the same amount, converted by molar mass. Where only a bound is given, the exact number is not on record here.

These results are taken from ChEMBL document CHEMBL1909616, “Identification of 4-quinolone derivatives as inhibitors of reactive oxygen species production from human umbilical vein endothelial cells” (Bioorg Med Chem Lett, 2011).

Usually CLint scaled stands for the capacity of the preparation to metabolise the compound, expressed as a volume cleared per time. By solubility is commonly meant how much of the substance goes into solution per volume. Low values mean little dissolved substance, high ones much dissolved substance. The AUC(0-t) is the area under the concentration-time curve up to a stated or last time point. A high value points to more exposure. What is called Cmax is the maximum level reached in the sampled fluid or tissue. A word on the half-life: it is how long it takes for the measured level to halve. A high value points to slow decline. For orientation: bioavailability means dose-corrected exposure relative to a reference, in per cent. Low readings indicate poor availability, high ones good availability. As usually defined, the clearance is a measure of how efficiently the substance is removed, as volume per time. A low value points to inefficient removal. One may read the Tmax as the time from dosing to the highest level.

In the case of `Cc1c(COc2cccc(OCC3CCOCC3)n2)[nH]c2ccccc2c1=O`, the CLint scaled at 0.2 µM in data set [1] is 984 mL/min/kg; in data set [2], 770 mL/min/kg. In data set [3], the solubility worked out at 3 µM (≈ 1.14 µg/mL).
For the compound `COc1ccc2[nH]c(COc3cccc(OCC4CCOCC4)c3)c(C)c(=O)c2c1`, the solubility in data set [3] was below 1 µM.
Turning to `COCCOCCCCc1[nH]c2ccccc2c(=O)c1C`, the CLint scaled at 0.2 µM in data set [1] was above 1000 mL/min/kg; in [2], 45 mL/min/kg. The compound further returned a solubility in [3] of at least 100 µM.
`CC(C)c1c(COc2cccc(OCC3CCOCC3)c2)[nH]c2ccccc2c1=O` displayed a solubility in data set [3] of 3 µM (≈ 1.22 µg/mL).
With `CCCCCC/C=C/Cc1[nH]c2ccccc2c(=O)c1C`, the CLint scaled at 0.2 µM in data set [1] and in data set [2] was above 1000 mL/min/kg in each case. In data set [3], this compound displayed a solubility below 1 µM.
Consider `Cc1c(COc2cc(OCCC(C)(C)O)ccn2)[nH]c2ccccc2c1=O`, for which the area under the curve AUC(0-t) at 24 h came to 897 ng·h/mL in [4] and 2240 ng·h/mL in data set [7]. This compound returned a Cmax in data set [5] of 202 ng/mL. In [6], this compound gave a half-life of 4.1 h. Besides, the results for the CLint scaled at 0.2 µM in [1] and in data set [2] were 112 mL/min/kg and 38 mL/min/kg, respectively. The compound also showed a bioavailability in [8] of 78%. In addition, the Vd in [9] was found to be 1.4 L/kg. Further, the concentration in solution in [3] (solubility) came to 85 µM (≈ 31.3 µg/mL). This compound came in with a clearance in data set [10] of 6 mL/min/kg. Besides, the Tmax in [11] was found to be 4 h.
Turning to `Cc1c(COCCCCO)nc2ccccc2c1O`, the solubility in data set [3] is at least 100 µM.
As for `Cc1c(COc2cccc(OCCCC(F)(F)F)c2)nc2ccccc2c1O`, the intrinsic clearance (CLint scaled) at 0.2 µM was above 1000 mL/min/kg in data set [1] and 257 mL/min/kg in [2]. Also, the solubility in data set [3] is below 1 µM.
As to `CCCCOc1cccc(OCc2[nH]c3ccccc3c(=O)c2C)c1`, the intrinsic metabolic clearance (CLint scaled) at 0.2 µM in data set [1] and in [2] was above 1000 mL/min/kg in each case. The same compound returned a solubility in data set [3] below 1 µM.
Take `O=c1c(Cl)c(COc2cccc(OCC3CCOCC3)c2)[nH]c2ccccc12`: the intrinsic metabolic clearance (CLint scaled) at 0.2 µM is above 1000 mL/min/kg in data set [1] and 460 mL/min/kg in data set [2]. In data set [3], the concentration in solution (solubility) came to 2 µM (≈ 0.8 µg/mL).
The corresponding values for `Cc1c(COc2cccc(OCC3CCOCC3)c2)[nH]c2ccc(C(=O)O)cc2c1=O` are below 50 mL/min/kg, below 20 mL/min/kg and at least 100 µM.
In the case of `Cc1c(COc2cncc(OCC3CCOCC3)c2)[nH]c2ccccc2c1=O`, the CLint scaled at 0.2 µM in [1] came out at 238 mL/min/kg; in data set [2], 133 mL/min/kg. In addition, in data set [3], the solubility was at least 100 µM.
As to `Cc1c(COc2cncc(OCCC(C)(C)O)c2)[nH]c2ccccc2c1=O`, the CLint scaled at 0.2 µM stood at 225 mL/min/kg in [1] and 66 mL/min/kg in data set [2]. Also, the solubility in [3] was at least 100 µM.
`Cc1c(COc2cccc(OCC3CCOCC3)c2)[nH]c2ccc(-c3cccnc3)cc2c1=O`: the intrinsic clearance (CLint scaled) at 0.2 µM is above 1000 mL/min/kg in data set [1] and 756 mL/min/kg in data set [2]. The compound also yielded a solubility in data set [3] below 1 µM.
The matching figures for `Cc1c(COc2cccc(OCC3CCOCC3)c2)[nH]c2ccc(Cl)cc2c1=O`: above 1000 mL/min/kg, above 1000 mL/min/kg and below 1 µM.
The matching figures for `Cc1c(COc2ccnc(OCC3CCOCC3)c2)[nH]c2ccccc2c1=O`: 203 mL/min/kg, 95 mL/min/kg and 22 µM (≈ 8.37 µg/mL).
As for `Cc1c(COc2cccc(OCC3CCOCC3)c2)[nH]c2ccc(F)cc2c1=O`, the CLint scaled at 0.2 µM was above 1000 mL/min/kg in data set [1] and 473 mL/min/kg in data set [2]. This compound also showed a solubility in data set [3] of 2 µM (≈ 0.795 µg/mL).
Turning to `Cc1c(COc2cccc(OCC3CCOCC3)c2)[nH]c2ccc(Br)cc2c1=O`, the solubility in data set [3] is below 1 µM.
Same read-out and setting: for `Cc1ccc2[nH]c(COc3cccc(OCC4CCOCC4)c3)c(C)c(=O)c2c1` the value was below 1 µM.
In the case of `Cc1c(COc2cccc(OCC3CCOCC3)c2)[nH]c2ccccc2c1=O`, the results for the AUC(0-t) at 24 h in [4] and in [15] were 196 ng·h/mL and 526 ng·h/mL, respectively. In [6], this compound showed a half-life of 1.8 h. In addition, the peak concentration (Cmax) in data set [12] came out at 196 ng/mL. In data set [13], this compound gave a bioavailability of 27%. The CLint scaled at 0.2 µM in data set [1] was found to be 420 mL/min/kg; in data set [2] it was 214 mL/min/kg. In data set [14], the Tmax amounted to 0.22 h. Besides, the Vd in data set [9] came to 2.3 L/kg. Also, the solubility in data set [3] is 5 µM (≈ 1.9 µg/mL). In data set [10], this compound yielded a clearance of 26 mL/min/kg.
With `COC(C)(C)CCOc1cccc(OCc2[nH]c3ccccc3c(=O)c2C)c1`, the intrinsic metabolic clearance (CLint scaled) at 0.2 µM in data set [1] and in data set [2] was above 1000 mL/min/kg throughout. This compound also came in with a solubility in [3] of 2 µM (≈ 0.763 µg/mL).
With `O=c1cc(COc2cccc(OCC3CCOCC3)c2)[nH]c2ccccc12`, the intrinsic clearance (CLint scaled) at 0.2 µM in data set [1] is 197 mL/min/kg; in data set [2], 78 mL/min/kg. The compound further gave a solubility in [3] of 4 µM (≈ 1.46 µg/mL).
In the case of `Cc1c(COc2cc(OCC3CCOCC3)ccn2)[nH]c2ccccc2c1=O`, the intrinsic metabolic clearance (CLint scaled) at 0.2 µM in data set [1] was 312 mL/min/kg; in data set [2], 113 mL/min/kg. The concentration in solution in data set [3] (solubility) was 36 µM (≈ 13.7 µg/mL).
The corresponding values for `Cc1c(COCCCCOCC2(C)COC2)[nH]c2ccccc2c1=O` are 295 mL/min/kg, 53 mL/min/kg and at least 100 µM.
The corresponding values for `CCCCCCCCCc1[nH]c2ccccc2c(=O)c1C` are above 1000 mL/min/kg, above 1000 mL/min/kg and below 1 µM.
